Legend:
osteoclast precursors = assay: Osteoclastogenesis (TRAP-positive multinucleated cells); format: cell-based, rat; settings: M-CSF 20 ng/ml and sRANKL 50 ng/ml, 8 days
Protocol: Osteoclastogenesis: Bone marrow cells were prepared by removing femurs from 6–8-week-old SD rats and flushing the bone marrow cavity with DMEM which was supplemented with 20 mM HEPES and 10% heat-inactivated FCS, 2 mM-glutamine, penicillin (100 U/ml) and streptomycin (100 μg/ml). After 24 hr, the non-adherent cells (hematopoietic cells) were collected and used as osteoclast precursors. The cells were seeded at 1×10^6 cells/well (0.5 ml) in 24-well plates in the presence of human recombinant soluble RANKL (50 ng/ml, Peprotech EC Ltd., London, United Kingdom) and murine M-CSF (20 ng/ml, Genzyme, Cambridge, Mass.). The culture medium was changed every 3 days. After 8˜10 days, osteoclast formation was confirmed by an assay of tartrate-resistant acid phosphatase (TRAP) (Kotake et al., 1999). In brief, the adherent cells were fixed with 10% formaldehyde in phosphate-buffered saline for 3 min. After treatment with ethanol/acetone (50:50 v/v) for 1 min, the cell surface was air dried and incubated for 10 min at room temperature in an acetate buffer (0.1 M sodium acetate, pH 5.0) containing 0.01% naphthol AS-MX phosphate (Sigma) and 0.03% fast red violet LB salt (Sigmna) in the presence of 50 mM sodium tartrate. Osteoclast-like TRAP-positive cells in each well were scored by counting the number of TRAP-positive and multinucleated cells containing more than three nuclei.

osteoclasts = assay: Assay of bone resorption of osteoclast; format: cell-based, rat; settings: 3-day incubation after removal of M-CSF and sRANKL, versus control
Protocol: Assay of bone resorption of osteoclast: Osteoclast precursors were isolated from rat long bones as mentioned above. The cells were re-suspended in a complete DMEM medium and plated into a calcium phosphate apatite-coated 24-well plate, OAAS (Oscotec, OCT USA Inc.) at 1×10^6 cells/0.5 ml/well. The cells were cultured for 5 days in the presence of M-CSF (20 ng/ml) plus sRANKL (50 ng/ml). Indazole 1 was injected daily for additional 3 days in the absence of M-CSF and sRANKL. Culture was terminated on day 8 and the remaining cells in the plate were lysed using 1 N NaOH. Five images per well were obtained using an inverted microscope (200×), and resorbed area was measured using an image analyzer. Local injection Male SD rats weighing 70–88 gm were used. Implantation of a cannula (22G) was done from the posteriolateral side into the proximal tibial metaphysis in both limbs of rats anesthetized with pentobarbital. The cannula had its outer end in the subcutaneous tissue. Indazole 1 was percutaneously injected through the cannula into the proximal tibia once/day for 1 week. The same concentration of DMSO diluted with normal saline was injected into the right side for comparison. On day 14, the rats were sacrificed and tibiae were fixed in 10% formaldehyde for 48 h at 4° C. The effect of Indazole 1 on resorption activity of osteoclasts was also examined. […]

adult male rats = assay: Bone loss induced by the cut of sciatic nerve; format: in vivo, rat; design: Tibia BMD / Tibia BMC / Femur BMD / Femur BMC: unit not given here; settings: for Bone volume / Femur BMC / Femur BMD / Femur length / Femur weight / Tibia BMC / Tibia BMD / Tibia length / Tibia weight: i.p. 1 mg/kg daily for 1 month, mean ± S.E., n=10
Text: Bone histomorphometry: After formalin fixation of tibia was completed, the tibiae were then decalcified in 0.5 N hydrochloric acid, dehydrated in an ascending series of ethanol solution and acetone, and embedded in paraffin. Serial sections (5 μm) were cut longitudinally and stained with Mayer's hematoxylin-eosin solution (Yang et al. (1993) Calcif Tissue Int 52:57–61). Images of the growth plate and proximal tibia were photographed using a photoMicroGraphic Digitize integrate System (MGDS; Total-Integra Technology Co., Ltd., Taipei, Taiwan). Bone volume measurements were performed on the whole secondary spongiosa, which is located under the primary spongiosa and characterized by a network of larger trabeculae. Bone volumes were calculated using an image analysis software. All measurements were done in a single-blind fashion. Ovariectomy and cut of sciatic nerve: Ovariectomy and cut of sciatic nerve were performed in adult female and male rats (3 month-old), respectively. After surgery, the rats were injected with Indazole 1 (i.p., 1 mg/Kg) or a vehicle daily for 4 weeks. On the day following the last injection, the rats were sacrificed and their tibia and femur were removed. Tibia and femur Preparation: At the end of the program, the rats were sacrificed by decapitation. The tibiae were removed, cleaned of soft tissue, and the length of the tibia was measured with a precision caliper (±0.05 mm) as described by Weinreb et al. (1991) J Bone Miner Res 6:725–731. The tibiae were fixed in 10% formaldehyde for 48 h at 4° C. for bone histomorphometry analysis. Some of the tibia and femur were also removed and kept at −20° C. for bone mineral analysis. Analysis of bone mineral density (BMD) and content (BMC): BMD and BMC of the tibia and femur were measured with a dual-energy X-ray absorptiometer (DEXA, XR-26; Norland, Fort Atkinson, Wis.). The mode adapted to the measurements of small subjects was adopted. A coefficient of variation of 0.7% was calculated from daily measurements of BMD on a lumbar phantom for more than 1 year (Yang et al. (1998) Calcif Tissue Int 63:86–90). The tibia and femur were thawed to room temperature before bone mineral analysis. The whole tibiae and femur were scanned and BMD and BMC were measured by absorptiometer.

For `OCc1ccc(-c2nn(Cc3ccccc3)c3ccccc23)o1` [Indazole 1, 1-benzyl-3-(5′-hydroxymethyl-2′-furyl)-indazole], the differentiation of osteoclast (osteoclast precursors) was “inhibited the differentiation of osteoclast in a concentration-dependent manner”, the “resorption activity of osteoclasts” value (osteoclasts) was “significantly inhibited” and the “bone loss induced by nerve section” value (adult male rats; 1 mg/kg daily for 4 weeks immediately after the cut of sciatic nerve) was “antagonized the bone loss”. The Bone volume (adult male rats; Contralateral side) was 11.9 ± 0.98%, the “Femur BMC” value (adult male rats; Contralateral side) was 0.419 ± 0.016 and the “Femur BMD” value (adult male rats; Contralateral side) was 0.132 ± 0.003. The Femur length (adult male rats; Contralateral side) was 3.95 ± 0.02 cm, the Femur weight (adult male rats; Contralateral side) was 1.16 ± 0.03 g and the “Tibia BMC” value (adult male rats; Contralateral side) was 0.282 ± 0.013. For the same molecule, the “Tibia BMD” value (adult male rats; Contralateral side) was 0.106 ± 0.002, the Tibia length (adult male rats; Contralateral side) was 4.36 ± 0.01 cm and the Tibia weight (adult male rats; Contralateral side) was 0.92 ± 0.03 g. The Bone volume (adult male rats; Surgery side) was 9.43 ± 0.8%, the “Femur BMC” value (adult male rats; Surgery side) was 0.394 ± 0.015 and the “Femur BMD” value (adult male rats; Surgery side) was 0.129 ± 0.003. The Femur length (adult male rats; Surgery side) was 3.96 ± 0.01 cm, the Femur weight (adult male rats; Surgery side) was 1.17 ± 0.03 g and the “Tibia BMC” value (adult male rats; Surgery side) was 0.298 ± 0.014. The “Tibia BMD” value (adult male rats; Surgery side) was 0.106 ± 0.002, the Tibia length (adult male rats; Surgery side) was 4.35 ± 0.01 cm and the Tibia weight (adult male rats; Surgery side) was 0.91 ± 0.03 g.

Source: patent publication US7160916B2, “Method of increasing bone density or treating osteoporosis” (Yung Shin Pharmaceutical Ind. Co., Ltd., priority 2003, dated 2007)
